According to PubChem BioAssay AID248 (DTP/NCI, 2004):
Several values for one entry are separate records, joined by “and”; a condition that tells them apart may be missing. Identical values can stand only once. Inconclusive results and toxic doses are left out. Cut-off read from the data, not from the text of the source: active = T/C of 150% or more; inactive = T/C below 125%.

Tested on: L1210 leukemia ip in BDF1 mice, survival T/C
Assay: NCI In Vivo Anticancer Drug Screen. Data for tumor model L1210 Leukemia (intraperitoneal) in B6D2F1 (BDF1) mice
Conditions: endpoint: mean survival time, higher = longer survival
Outline: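 Each compound was tested against a transplantable tumor grown in mice. The endpoint was survival, with treated animals benchmarked against vehicle controls as a simple ratio.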

[1] = dose: 25.0 mg/kg/injection, schedule: Q04DX003 (ip), vehicle: saline
[2] = dose: 50.0 mg/kg/injection, schedule: Q01DX009 (ip), vehicle: saline
[3] = dose: 50.0 mg/kg/injection, schedule: Q04DX003 (ip), vehicle: saline
[4] = dose: 100.0 mg/kg/injection, schedule: Q01DX009 (ip), vehicle: saline
[5] = dose: 100.0 mg/kg/injection, schedule: Q04DX003 (ip), vehicle: saline
[6] = dose: 100.0 mg/kg/injection, schedule: Q04DX003 (ip), vehicle: saline with Tween-80
[7] = dose: 200.0 mg/kg/injection, schedule: Q04DX003 (ip), vehicle: saline with Tween-80
[8] = dose: 400.0 mg/kg/injection, schedule: Q04DX003 (ip), vehicle: saline with Tween-80
[9] = dose: 50.0 mg/kg/injection, schedule: Q01DX001 (ip), vehicle: saline
[10] = dose: 100.0 mg/kg/injection, schedule: Q01DX001 (ip), vehicle: saline
[11] = dose: 200.0 mg/kg/injection, schedule: Q01DX001 (ip), vehicle: saline
[12] = dose: 100.0 mg/kg/injection, schedule: Q01DX009 (ip), vehicle: saline with Tween-80
[13] = dose: 200.0 mg/kg/injection, schedule: Q01DX009 (ip), vehicle: saline with Tween-80
[14] = dose: 400.0 mg/kg/injection, schedule: Q01DX009 (ip), vehicle: saline with Tween-80
[15] = dose: 25.0 mg/kg/injection, schedule: Q01DX009 (ip), vehicle: saline
[16] = dose: 50.0 mg/kg/injection, schedule: Q01DX001 (ip), vehicle: carboxymethylcellulose (CMC)
[17] = dose: 100.0 mg/kg/injection, schedule: Q01DX001 (ip), vehicle: carboxymethylcellulose (CMC)
[18] = dose: 200.0 mg/kg/injection, schedule: Q01DX001 (ip), vehicle: carboxymethylcellulose (CMC)
[19] = dose: 400.0 mg/kg/injection, schedule: Q01DX001 (ip), vehicle: carboxymethylcellulose (CMC)
[20] = dose: 100.0 mg/kg/injection, schedule: Q04DX002 (ip), vehicle: Klucel (hydroxypropylcellulose) (HPC)
[21] = dose: 200.0 mg/kg/injection, schedule: Q04DX002 (ip), vehicle: Klucel (hydroxypropylcellulose) (HPC)
[22] = dose: 400.0 mg/kg/injection, schedule: Q04DX002 (ip), vehicle: Klucel (hydroxypropylcellulose) (HPC)
[23] = dose: 50.0 mg/kg/injection, schedule: Q04DX002 (ip), vehicle: saline

Measured: T/C

CCCCCCCCCCCCSC(=O)CCC(=O)O
inactive: dose: 50.0 mg/kg/injection, schedule: Q01DX009 (ip), vehicle: other 102 % of control | dose: 100.0 mg/kg/injection, schedule: Q01DX009 (ip), vehicle: other 108 % of control | dose: 100.0 mg/kg/injection, schedule: Q04DX003 (ip), vehicle: Klucel (hydroxypropylcellulose) (HPC) 97 % of control | dose: 200.0 mg/kg/injection, schedule: Q01DX009 (ip), vehicle: other 97 % of control | dose: 200.0 mg/kg/injection, schedule: Q04DX003 (ip), vehicle: Klucel (hydroxypropylcellulose) (HPC) 103 % of control

CCN(CC)CCOc1ccc(Br)cc1
inactive: [1] 105 % of control | [2] 102 % of control | [3] 100 % of control | [4] 102 % of control | [5] 103 % of control and 111 % of control

NC(=O)c1nnc(-c2ccc(Cl)cc2)[nH]c1=O
inactive: [6] 98 % of control | [7] 98 % of control | [8] 98 % of control

Cc1cc(O)c(C=O)c(C)c1O
inactive: dose: 100.0 mg/kg/injection, schedule: Q01DX009 (ip), vehicle: Klucel (hydroxypropylcellulose) (HPC) 110 % of control | dose: 200.0 mg/kg/injection, schedule: Q01DX009 (ip), vehicle: Klucel (hydroxypropylcellulose) (HPC) 117 % of control

CC1CCN(C(CC(=O)c2ccccc2)C(=O)c2ccccc2)CC1 (configuration not stated)
inactive: [9] 104 % of control | [10] 98 % of control | [11] 102 % of control | dose: 400.0 mg/kg/injection, schedule: Q01DX001 (ip), vehicle: saline 96 % of control

CC(C)=CCCC/C=N/NC(N)=O
inactive: dose: 75.0 mg/kg/injection, schedule: Q01DX001 (ip), vehicle: acetone 102 % of control | dose: 150.0 mg/kg/injection, schedule: Q01DX001 (ip), vehicle: acetone 97 % of control

CC(=O)Nc1ccc(NC(C)=O)c2c1C(=O)c1ccccc1C2=O
inactive: [12] 94 % of control | [6] 119 % of control | [13] 96 % of control | [7] 112 % of control | [14] 91 % of control | [8] 93 % of control

Fc1c(F)c(F)c(Oc2c(F)c(F)c(C(F)(F)F)c(F)c2F)c(F)c1F
inactive: [12] 102 % of control | [6] 94 % of control | [13] 98 % of control | [7] 92 % of control | [14] 98 % of control | [8] 92 % of control

N=C(N)CCN
inactive: [10] 98 % of control | [11] 102 % of control

OC(c1nc2ccc(Cl)cc2[nH]1)C(O)c1nc2ccc(Cl)cc2[nH]1 (configuration not stated)
inactive: dose: 75.0 mg/kg/injection, schedule: Q01DX001 (ip), vehicle: other 102 % of control | dose: 150.0 mg/kg/injection, schedule: Q01DX001 (ip), vehicle: other 96 % of control | dose: 300.0 mg/kg/injection, schedule: Q01DX001 (ip), vehicle: other 91 % of control

C#CCSC(=N)N
inactive: [15] 101 % of control | [2] 93 % of control | [5] 103 % of control

O=C1CC[C@H](NC(=O)OCc2ccccc2)C(=O)O1
inactive: [6] 100 % of control | [7] 100 % of control | [8] 97 % of control

S=c1nc[nH]c2c1ncn2CCc1ccccc1
inactive: [16] 115 % of control | [17] 101 % of control | [18] 112 % of control | [19] 95 % of control

CCOC(=O)CNc1ccc(Br)cc1
inactive: [20] 108 % of control | [21] 108 % of control

COc1ccc(Oc2cc(CC3c4cc(OC)c(OC)cc4CCN3C)c([N+](=O)[O-])cc2OC)cc1OC (configuration not stated)
inactive: dose: 12.5 mg/kg/injection, schedule: Q01DX009 (ip), vehicle: saline 93 % of control | [15] 102 % of control | [2] 96 % of control | [4] 108 % of control

NC(=S)N/N=C/c1ccncc1
inactive: [2] 96 % of control | [4] 98 % of control | [5] 96 % of control | dose: 200.0 mg/kg/injection, schedule: Q01DX009 (ip), vehicle: saline 93 % of control | dose: 200.0 mg/kg/injection, schedule: Q04DX003 (ip), vehicle: saline 91 % of control

Cc1ccc(Nc2cc(N)nc(N)n2)cc1C
inactive: dose: 25.0 mg/kg/injection, schedule: Q01DX Z (ip), vehicle: methylcellulose (MC) 97 % of control | dose: 50.0 mg/kg/injection, schedule: Q01DX Z (ip), vehicle: methylcellulose (MC) 114 % of control

CN(C)CCC(c1ccccc1)(c1ccccc1)c1ccccc1
inactive: [16] 92 % of control | [17] 92 % of control | [18] 94 % of control

CCCCCCCCCCCCCc1nc(N)nc(N2CCOCC2)n1
inactive: [20] 92 % of control | [21] 95 % of control | [22] 92 % of control

O=c1[nH]c(=O)n(C2SC(CO)C(O)C2O)cc1F (configuration not stated)
inactive: dose: 18.8 mg/kg/injection, schedule: Q04DX003 (ip), vehicle: saline 102 % of control | dose: 37.5 mg/kg/injection, schedule: Q04DX003 (ip), vehicle: saline 94 % of control | [3] 94 % of control | dose: 100.0 mg/kg/injection, schedule: Q01DX005 (ip), vehicle: saline 97 % of control | dose: 200.0 mg/kg/injection, schedule: Q01DX005 (ip), vehicle: saline 95 % of control

Cc1ccnc(NC(=O)NC2CCCCC2)c1
inactive: [20] 96 % of control | [21] 101 % of control | [22] 96 % of control

CCCCCCSC(=N)N
inactive: dose: 12.5 mg/kg/injection, schedule: Q01DX001 (ip), vehicle: saline 95 % of control | dose: 12.5 mg/kg/injection, schedule: Q04DX002 (ip), vehicle: saline 94 % of control and 97 % of control | dose: 12.5 mg/kg/injection, schedule: Q04DX003 (ip), vehicle: saline 119 % of control | dose: 25.0 mg/kg/injection, schedule: Q01DX001 (ip), vehicle: saline 100 % of control | dose: 25.0 mg/kg/injection, schedule: Q04DX002 (ip), vehicle: saline 94 % of control and 100 % of control | [1] 104 % of control | [9] 89 % of control | [23] 103 % of control and 106 % of control | [3] 102 % of control

CC(=O)c1ccc(Oc2ccc(C(C)=O)cc2)cc1
inactive: [16] 103 % of control | [17] 105 % of control | [20] 106 % of control | [18] 92 % of control | [21] 102 % of control | [19] 92 % of control | [22] 91 % of control

CC(C)CN(OC(=O)c1ccccc1)[N+](=O)[O-]
inactive: [23] 94 % of control | dose: 100.0 mg/kg/injection, schedule: Q04DX002 (ip), vehicle: saline 108 % of control | dose: 200.0 mg/kg/injection, schedule: Q04DX002 (ip), vehicle: saline 102 % of control

COc1ccc(OC(C)=O)c(/C=C\C=O)c1
inactive: [17] 94 % of control | [18] 100 % of control | [19] 100 % of control
